Assay results taken from patent US9012493B2, “1-heterodiene derivative and pest control agent” (Nippon Soda Co., Ltd., priority 2009, dated 2015).

What was measured:
Assay type in all cases: in vivo
[1] = test system: Sweetpotato Whitefly (Bemisia Tabaci); assay: Efficacy test against sweetpotato whitefly, sprayed tomato leaf; details: 125 ppm, emulsifiable concentrate diluted with water, adults (type B), after 2 days, 25° C.
Outline: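 Cut tomato leaves were sprayed with an emulsifiable concentrate diluted to 125 ppm compound, air-dried, then infested with seven pairs of type B adults. Leaves were held at 25 °C and 65% humidity, and mortality was counted after 2 days as dead/released × 100. The test was run twice.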

[2] = test system: Cotton Aphid (Aphis Gossypii); assay: Efficacy test against cotton aphid, spray on cucumber plant; details: 125 ppm, emulsifiable concentrate diluted with water, sprayed over cucumber plant with nymphs, after 5 days, 25° C.
Outline: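 Cucumber plants (~10 days after sprouting) carrying nymphs deposited by cotton aphid adults over 1 day were sprayed with emulsifiable concentrate diluted to 125 ppm compound. Plants were kept at 25 °C and 65% humidity. Mortality after 5 days gave the insecticidal rate (dead/released ×100), from two replicates.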

[3] = test system: Twospotted Spider Mite (Tetranychus Urticae Koch); assay: Efficacy test against twospotted spider mite, spray on kidney bean plant; details: 125 ppm, wettable powder diluted with water, sprayed, female adults with resistance to an organophosphorus agent on kidney bean, after 3 days
Method: The wettable powder obtained according to Formulation of Formulation Example 1 was diluted with water so as to control the concentration of the compound to 125 ppm. Seventeen female adults of twospotted spider mite with resistance to an organophosphorus agent were inoculated on a first true leaf of a kidney bean plant (approximately 7 to 10 days after sprouting) sown in a 3 sun/size pot (9 cm). The diluted solution was sprayed. The pot was placed in a temperature-controlled room at a temperature of 25° C. and a humidity of 65%. After 3 days, the adulticidal rate was examined. The test was repeated twice.

[4] = test system: Rice Armyworm (Mythimna Separata); assay: Efficacy test against rice armyworm, corn leaf dip; details: 125 ppm, emulsifiable concentrate diluted with water, corn leaves immersed, second instar larvae, after 5 days, 25° C.
Outline: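 Corn leaves dipped 30 s in compound diluted to 125 ppm from an emulsifiable concentrate, air-dried, then offered to five second-instar larvae. Held at 25° C and 65% humidity; mortality scored after 5 days as dead/released ×100. Run in duplicate.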

C=C1SC(=Nc2ccc(OC)cc2C)C(=CSc2ccc(F)cc2)CC1(C)C [Compound 2-41]
100%: insecticidal rate [1] | insecticidal rate [2] | adulticidal rate [3] | insecticidal rate [4]

C=C1SC(=Nc2ccc(OC)cc2)C(=CSc2ccc(F)cc2)CC1(C)C [Compound 2-46]
100%: insecticidal rate [1] | insecticidal rate [2] | adulticidal rate [3] | insecticidal rate [4]

C=C1SC(=Nc2ccc(C)cc2)C(=CSc2ccc(F)cc2)CC1(C)C [Compound 2-48]
100%: insecticidal rate [1] | insecticidal rate [2] | adulticidal rate [3] | insecticidal rate [4]

C=C1SC(=Nc2ccc(OC)cc2)C(=CSc2ccccc2OC)CC1(C)C [Compound 2-49]
100%: insecticidal rate [1] | insecticidal rate [2] | adulticidal rate [3] | insecticidal rate [4]

C=C1SC(=Nc2ccc(C)cc2)C(=CSc2ccccc2)CC12CCOCC2 [Compound 2-56]
100%: insecticidal rate [1] | insecticidal rate [2] | adulticidal rate [3] | insecticidal rate [4]

C=C1SC(=Nc2ccc(C)cc2C)C(=CSc2ccccc2)CC1(C)C [Compound 2-64]
100%: insecticidal rate [1] | insecticidal rate [2] | adulticidal rate [3] | insecticidal rate [4]

C=C1SC(=Nc2ccc(C)cc2)C(=CSc2ccccc2)CC1CC (centres unmarked) [Compound 2-68]
100%: insecticidal rate [1] | insecticidal rate [2] | adulticidal rate [3] | insecticidal rate [4]

C=C1SC(=Nc2ccc(OC)cc2)C(=CSc2ccc(C#N)cc2)CC1(C)C [Compound 2-70]
100%: insecticidal rate [1] | insecticidal rate [2] | adulticidal rate [3] | insecticidal rate [4]

C=C1SC(=Nc2ccc(C)cc2)C(=CSc2cccs2)CC1(C)C [Compound 2-71]
100%: insecticidal rate [1] | insecticidal rate [2] | adulticidal rate [3] | insecticidal rate [4]

C=C1SC(=Nc2ccc(C)cc2)C(=CSc2ccc(C#N)cc2)CC1(C)C [Compound 2-72]
100%: insecticidal rate [1] | insecticidal rate [2] | adulticidal rate [3] | insecticidal rate [4]

C=C1SC(=Nc2ccc(C)cc2)C(=CSc2ccccc2)CC1CCC (centres unmarked) [Compound 2-75]
100%: insecticidal rate [1] | insecticidal rate [2] | adulticidal rate [3] | insecticidal rate [4]

C=C1SC(=Nc2ccc(C)cc2)C(=CSc2ccccc2)CC1C (centres unmarked) [Compound 2-76]
100%: insecticidal rate [1] | insecticidal rate [2] | adulticidal rate [3] | insecticidal rate [4]

C=C1SC(=Nc2ccc(C)cc2)C(=CSc2cccs2)CC1C (centres unmarked) [Compound 2-77]
100%: insecticidal rate [1] | insecticidal rate [2] | adulticidal rate [3] | insecticidal rate [4]

C=C1SC(=Nc2ccc(C)cc2)C(=CSc2ccsc2)CC1(C)C [Compound 2-78]
100%: insecticidal rate [1] | insecticidal rate [2] | adulticidal rate [3] | insecticidal rate [4]

C=C1SC(=Nc2ccc(C)cc2)C(=CSc2ccc(C)s2)CC1(C)C [Compound 2-79]
100%: insecticidal rate [1] | insecticidal rate [2] | adulticidal rate [3] | insecticidal rate [4]

C=C1SC(=Nc2ccc(C)cc2)C(=CSc2ccc(OC)s2)CC1(C)C [Compound 2-80]
100%: insecticidal rate [1] | insecticidal rate [2] | adulticidal rate [3] | insecticidal rate [4]

C=C1SC(=Nc2ccc(OC)cc2)C(=CSc2ccsc2)CC1(C)C [Compound 2-81]
100%: insecticidal rate [1] | insecticidal rate [2] | adulticidal rate [3] | insecticidal rate [4]

C=C1SC(=Nc2ccc(OC)cc2)C(=CSc2ccc(C)s2)CC1(C)C [Compound 2-83]
100%: insecticidal rate [1] | insecticidal rate [2] | adulticidal rate [3] | insecticidal rate [4]

C=C1SC(=Nc2ccc(C)cc2)C(=CSc2ccc(C(F)(F)F)cc2)CC1(C)C [Compound 2-90]
100%: insecticidal rate [1] | insecticidal rate [2] | adulticidal rate [3] | insecticidal rate [4]

C=C1SC(=Nc2ccc(C)cc2)C(=CSc2nc3ccccc3s2)CC1(C)C [Compound 2-94]
100%: insecticidal rate [1] | insecticidal rate [2] | adulticidal rate [3] | insecticidal rate [4]

C=C1SC(=Nc2ccc(C)cc2)C(=CSc2cccc(C(F)(F)F)c2)CC1(C)C [Compound 2-99]
100%: insecticidal rate [1] | insecticidal rate [2] | adulticidal rate [3] | insecticidal rate [4]

C=C1SC(=Nc2ccc(C)cc2)C(=CSc2ccccc2C(F)(F)F)CC1(C)C [Compound 2-100]
100%: insecticidal rate [1] | insecticidal rate [2] | adulticidal rate [3] | insecticidal rate [4]

C=C1SC(=Nc2ccc(OC)cc2)C(=CSc2ccc([Si](C)(C)C)s2)CC1(C)C [Compound 2-103]
100%: insecticidal rate [1] | insecticidal rate [2] | adulticidal rate [3] | insecticidal rate [4]

C=C1SC(=Nc2ccc(C)cc2)C(=CSc2cccc(C)c2)CC1(C)C [Compound 2-110]
100%: insecticidal rate [1] | insecticidal rate [2] | adulticidal rate [3] | insecticidal rate [4]

C=C1SC(=Nc2ccc(OC)cc2)C(=CSc2ccc(Br)s2)CC1(C)C [Compound 2-117]
100%: insecticidal rate [1] | insecticidal rate [2] | adulticidal rate [3] | insecticidal rate [4]

C=C1SC(=Nc2ccc(C)cc2)C(=CSc2ccc(F)cc2F)CC1(C)C [Compound 2-124]
100%: insecticidal rate [1] | insecticidal rate [2] | adulticidal rate [3] | insecticidal rate [4]

C=C1SC(=Nc2ccc(C)c(C)c2)C(=CSc2ccccc2)CC1(C)C [Compound 2-148]
100%: insecticidal rate [1] | insecticidal rate [2] | adulticidal rate [3] | insecticidal rate [4]

C=C1SC(=Nc2ccc(C)c(C)c2)C(=CSc2cccs2)CC1(C)C [Compound 2-149]
100%: insecticidal rate [1] | insecticidal rate [2] | adulticidal rate [3] | insecticidal rate [4]

C=C1SC(=Nc2ccc(C)c(C)c2)C(=CSc2ccc(F)cc2)CC1(C)C [Compound 2-150]
100%: insecticidal rate [1] | insecticidal rate [2] | adulticidal rate [3] | insecticidal rate [4]
